In test [1] the test system is EP4 mRNA. The test can be described thus: Localization of EP4 mRNA expression in bone tissue by in situ hybridization. The class given is in vivo. The conditions noted are these: single anabolic dose, rat tibia. As to the method: (§1) For mRNA localization experiments, 5-week old Sprague-Dawley rats (Charles River) are euthanized by CO2, their tibiae and calvariae are excised, cleaned of soft tissues and frozen immediately in liquid nitrogen. For EP4 regulation experiments, 6-week old rats are given a single injection of either vehicle (7% ethanol in sterile water) or an anabolic dose of PGE2 (Cayman Chemical, Ann Arbor, Mich., 3-6 mg/kg in the same vehicle) intraperitoneally. Animals are euthanized at several time points post-injection and their tibiae and calvariae, as well as samples from lung and kidney tissues are frozen in liquid nitrogen.
Frozen tibiae are sectioned coronally at […] thickness and sections are mounted on charged slides (Probe On Plus, Fisher Scientific, Springfield, N.J.) and are kept at −70° C. until hybridization. cRNA probes are labeled with ^35S-UTPgS (ICN, Costa Mesa, Calif.) using a Riboprobe II kit (Promega Madison, Wis.). Hybridization is performed overnight at 50° C. […]
In situ hybridization is used in order to localize cells expressing EP4 in bone. In control experiment (vehicle-injected) rats, low expression of EP4 is detected in bone marrow cells. […]

For test [2], the system named is EP2 mRNA. The test can be described thus: EP2 mRNA in RP-1 periosteal cells (Northern blot). The class given is cell-based, rat. To be noted: RP-1 cells. As to the method: (§2) RP-1 periosteal cells are spontaneously immortalized from primary cultures of periosteal cells from tibae of 4-week old Sprague-Dawley rats and are cultured in DMEM (BRL, Gaithersburg, Md.) with 10% fetal bovine serum (JRH Biosciences, Lenexa, Kans.).
(§3) Total RNA is extracted from the tibial metaphysis or diaphysis and calvaria using a guanidinium isothiocyanate-phenol-chloroform method after pulverizing frozen bone samples by a tissue homogenizer. See P. Chomczynski et al., Single-step method of RNA isolation by acid guanlidium thiocyanate-phenol-chloroform extraction., Analyt Biochem, 162, 156-159 (1987), which is incorporated by reference herein in its entirety. RNA samples ([…]) are separated on 0.9% agarose/formaldehyde gels and transferred onto nylon membranes (Boehringer Mannheim, Germany). Membranes are prehybridized in Hybrisol I (Oncor, Gaithersburg, Md.) and 0.5 mg/ml sonicated salmon sperm DNA (Boehringer) at 42° C. for 3 hours and are hybridized at 42° C. with rat EP2 and mouse EP4 cDNA probes labeled with [^32P]-dCTP (Amersham, Buckinghamshire, UK) by random priming using the rediprime kit (Amersham). After hybridization, membranes are washed 4 times in 2×SSC+0.1% SDS at room temperature for a total of 1 hour and once with 0.2×SSC+0.1% SDS at 55° C. for 1 hour and then exposed to Kodak XAR 2 film at −70° C. using intensifying screens. […]

For test [3], the system named is EP4 mRNA. The experiment in a line: EP4 mRNA levels in bone-derived cell lines (Northern blot). The class given is cell-based, rat. As for the experimental part:
as §2
RCT-1 and RCT-3 are clonal cell lines immortalized by SV-40 large T antigen from cells released from fetal rat calvair by a cmbination collagenase/hyaluronidase digestion. RCT-1 cells, derived from cells released during the first 10 minutes of digestion (fraction I), are cultured in RPMI 1640 medium (BRL) with 10% fetal bovine serum and 0.4 mg/ml G418 (BRL). These cells differentiate and express osteoblastic features upon retinoic acid treatment. RCT-3 cells, immortalized from osteoblast-enriched fraction III cells, are cultured in F-12 medium (BRL) with 5% Fetal bovine serum and 0.4 mg/ml G418. TRAB-11 cells are also immortalized by SV40 large T antigen from adult rat tibia and are cultured in RPML 1640 medium with 10% FBS and 0.4 mg/ml G418. ROS 17/2.8 rat osteosarcoma cells are cultured in F-12 containing 5% FBS. Osteoblast-enriched (fraction E) primary fetal rat calvaria cells are obtained by collagenase/hyaluronidase digestion of calvariae of 19 day-old rat fetuses. See Rodan et al., Growth stimulation of rat calvaria osteoblastic cells by acidic FGF, Endocrinology, 121, 1919-1923 (1987), which is incorporated by reference herein in its entirety. Cells are released during 30-50 minutes digestion (fraction E) and are cultured in F-12 medium containing 5% […].
(§4) Total RNA is extracted from the tibial metaphysis or diaphysis and calvaria using a guanidinium isothiocyanate-phenol-chloroform method after pulverizing frozen bone samples by a tissue homogenizer. See P. Chomczynski et al., Single-step method of RNA isolation by acid guanlidium thiocyanate-phenol-chloroform extraction., Analyt Biochem, 162, 156-159 (1987), which is incorporated by reference herein in its entirety. RNA samples ([…]) are separated on 0.9% agarose/formaldehyde gels and transferred onto nylon membranes (Boehringer Mannheim, Germany). […]

Another test has as its system intracellular cAMP. The test can be described thus: Effect of PGE2 on intracellular cAMP in osteoblastic cell lines. The class given is cell-based, rat.
The subject of test [4] is EP4 mRNA. The test can be described thus: EP4 mRNA levels in bone tissue after systemic injection (Northern blot). The class given is in vivo, rat. To be noted: tibial diaphysis, 3-6 mg/Kg systemic.
Text: For mRNA localization experiments, 5-week old Sprague-Dawley rats (Charles River) are euthanized by CO2, their tibiae and calvariae are excised, cleaned of soft tissues and frozen immediately in liquid nitrogen. […] Animals are euthanized at several time points post-injection and their tibiae and calvariae, as well as samples from lung and kidney tissues are frozen in liquid nitrogen.
as §3, with “(Amersham).” for “(Amersham). After hybridization, membranes are washed 4 times in 2×SSC+0.1% SDS at room temperature for a total of 1 hour and once with 0.2×SSC+0.1% SDS at 55° C. for 1 hour and then exposed to Kodak XAR 2 film at −70° C. using intensifying screens.”

In test [5] the test system is EP2 mRNA. The test can be described thus: EP2 mRNA in bone tissue after systemic injection (Northern blot). The class given is in vivo, rat. As for the experimental part: as §1, §4

SMILES strings stand for the structures.

As for `CCCCC[C@H](O)/C=C/[C@H]1[C@H](O)CC(=O)[C@@H]1C/C=C\CCCC(=O)O` [PGE2], the “expression of EP4 in bone marrow cells” value in the test on EP4 mRNA [1] is “increased”. Besides, in the test with EP2 mRNA [2], the “EP2 mRNA expression before or after treatment” value is reported as “not expressed”. Moreover, the “effect on EP4 mRNA levels” value is reported as “no effect” with EP4 mRNA [3] (RCT-3 cells); “rapidly increases” in the test with EP4 mRNA [3] (RP-1 periosteal cells, 10^−6 M); “rapidly increased” in the test on EP4 mRNA [4] (five-week-old male rats). The “time of peak EP4 mRNA level after treatment” value in the test with EP4 mRNA [3] (RP-1 periosteal cells, 10^−6 M) worked out at 2 h. The “effect on intracellular cAMP” value in the test with intracellular cAMP (RCT-3 cells) is “markedly induced”; in the test with intracellular cAMP (ROS 17/2.8 rat osteosarcoma cells) it was “no effect”; in the test with intracellular cAMP (TRAB-11 cells) it was “markedly induced”. In the test with EP4 mRNA [4], the “time of peak EP4 mRNA level after injection” value is listed as 2 h. Moreover, in the test on EP2 mRNA [5], the “induction of EP2 mRNA” value is on record as “does not induce”.

The record behind these values is patent US20060258726A1, “1,5-Disubstituted imidazolidin-2-one derivatives for use as ep4 receptor agonists in the treatment of eye and bone diseases” (priority 2002, published 2006).
